The values that follow come from patent US7414059B2, “Pyrazolyl and imidazolyl pyrimidines as CRF antagonists” (Roche Palo Alto LLC, priority 2003, dated 2008).

In one data set the target is T1, CRF1 receptor (Homo sapiens, UniProt P34998).
T1 construct: Cell membranes are prepared according the method of Dieterich and DeSouza (1996); endogenous in cells; host or cells: IMR-32 human neuroblastoma cells (membrane preparation)
T1 sequence (P34998 24-415): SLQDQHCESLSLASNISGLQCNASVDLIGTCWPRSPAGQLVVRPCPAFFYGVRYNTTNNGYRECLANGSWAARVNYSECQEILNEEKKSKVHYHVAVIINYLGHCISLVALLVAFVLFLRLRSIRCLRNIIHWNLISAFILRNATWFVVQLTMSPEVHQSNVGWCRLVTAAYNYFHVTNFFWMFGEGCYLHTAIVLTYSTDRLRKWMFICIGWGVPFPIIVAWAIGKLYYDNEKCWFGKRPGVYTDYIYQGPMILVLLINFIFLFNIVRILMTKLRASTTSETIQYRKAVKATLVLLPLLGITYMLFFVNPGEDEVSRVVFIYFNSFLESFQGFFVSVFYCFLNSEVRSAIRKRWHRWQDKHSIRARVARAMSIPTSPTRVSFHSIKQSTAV
The data set can be described thus: CRF1 Receptor Binding Assay. The following applies: competition binding with [125I]Tyr0-ovine CRF, human IMR-32 neuroblastoma cell membranes; pKi derived from pIC50. The procedure:
CRF1 Receptor Binding Assay
Human IMR-32 neuroblastoma cells are grown to 80% confluence in MEM medium containing 10% heat-inactivated FBS, lmM Sodium Pyruvate, and 0.1 mM nonessential amino acids. Cell membranes are prepared according the method of Dieterich and DeSouza (1996). The cells (˜5E+9) are resuspended in 10 volumes of wash buffer (5 mM Tris HCl, 10 mM MgCl2, 2 mM EGTA, pH 7.4 at RT), homogenized with a Polytron, and then centrifuged at 45,000 G for 20 min at 4° C. The membrane pellets are washed twice with wash buffer (45,000 G for 20 min at 4° C.) and then resuspended (50 mM Tris HCl, 10 mM MgCl2, 2 mM EGTA, pH 7.4 at RT). Protein concentration is determined using Pierce reagents and BSA as standard. Aliquots of 1-1.5 mL are stored at −80° C. until binding assay.
The competition binding assay is performed in a final volume of 250 μl, which contains assay buffer (50 mM Tris-HCl, 10 mM MgCl2, 2 mM EGTA, 0.2% BSA, 0.1 mM bacitracin and 100 kIU/mL aprotinin pH 7.2 at R.T.), 0.05 nM [^125I]Tyr^0-ovine CRF (Du Pont New England Nuclear), 50 μg of membrane protein, and test compound at various concentrations. Non-specific binding is determined with 1 uM hCRF. Binding reactions are terminated after 2 hr incubation at 25° C. by filtering through 96-w GF/C filter plate using a Packard Harvester (Filtermate 196). The 96-w filter plate is pre-treated with 0.3% polyethyleneimine and pre-washed with washing buffer (50 mM Tris-HCl, 10 mM MgCl2, 2 mM EGTA, 0.2% BSA, pH 7.2 at 4° C.). Unbound radioactivity is removed by four rapid washes (0.8 ml/well) with wash buffer. The radioactivity is quantified using a Packard TopCount. Data are analyzed using non-linear iterative curve fitting to obtain IC50 and Hill slope values. PKi values are derived from pIC50 values (−log of IC50).

Where a name gives a salt, the structure may show the parent alone.

One may read the melting point as the temperature, or range, at which the solid turns liquid. As usually defined, the Ki is a measure of affinity in units of concentration, obtained from inhibition or displacement. Low readings indicate higher affinity, high ones lower affinity.

In the case of `Cc1ccn(-c2cc(Nc3c(Cl)cc(Cl)cc3Cl)nc(C)n2)n1` (as salt: hydrochloride) [[2-Methyl-6-(3-methyl-pyrazol-1-yl)-pyrimidin-4-yl]-(2,4,6-trichloro-phenyl)-amine], the melting point lay in the range of 245 to 247 °C.

In turn, `Cc1cn(-c2nc(C)nc(Nc3c(Cl)cc(Cl)cc3Cl)c2Cl)cn1` [[5-Chloro-2-methyl-6-(4-methyl-imidazol-1-yl)-pyrimidin-4-yl]-(2,4,6-trichloro-phenyl)-amine] gave a Ki at CRF1 receptor of 1.91 µM.

With `CCCc1ccn(-c2nc(C)nc(Nc3c(Cl)cc(Cl)cc3Cl)c2C)n1` [[2,5-Dimethyl-6-(3-propyl-pyrazol-1-yl)-pyrimidin-4-yl]-(2,4,6-trichloro-phenyl)-amine], at CRF1 receptor, the inhibitory constant (Ki) is 1.62 µM.

Turning to `Cc1ccn(-c2cc(Nc3c(Cl)cc(Cl)cc3Cl)nc(C)n2)n1` [[2-Methyl-6-(3-methyl-pyrazol-1-yl)-pyrimidin-4-yl]-(2,4,6-trichloro-phenyl)-amine], the Ki on CRF1 receptor is 1.07 µM.
